Measured values reported in US20180334447A1, “2,3,4,5-TETRAHYDROPYRIDIN-6-AMINE DERIVATIVES” (JANSSEN PHARMACEUTICA NV, priority 2015, published 2018).

molecular target: T1, recombinant BACE2 protein (Homo sapiens, UniProt Q9Y5Z0); test: BACE2 biochemical FRET based assay; conditions: BACE2, 450 minutes at room temperature, pH 5.0; read-out: Biochemical FRET based assay pIC50 (converted)
T1 construct: recombinant BACE2 protein in a final concentration of 0.4 μg/ml
T1 sequence (Q9Y5Z0 63-518): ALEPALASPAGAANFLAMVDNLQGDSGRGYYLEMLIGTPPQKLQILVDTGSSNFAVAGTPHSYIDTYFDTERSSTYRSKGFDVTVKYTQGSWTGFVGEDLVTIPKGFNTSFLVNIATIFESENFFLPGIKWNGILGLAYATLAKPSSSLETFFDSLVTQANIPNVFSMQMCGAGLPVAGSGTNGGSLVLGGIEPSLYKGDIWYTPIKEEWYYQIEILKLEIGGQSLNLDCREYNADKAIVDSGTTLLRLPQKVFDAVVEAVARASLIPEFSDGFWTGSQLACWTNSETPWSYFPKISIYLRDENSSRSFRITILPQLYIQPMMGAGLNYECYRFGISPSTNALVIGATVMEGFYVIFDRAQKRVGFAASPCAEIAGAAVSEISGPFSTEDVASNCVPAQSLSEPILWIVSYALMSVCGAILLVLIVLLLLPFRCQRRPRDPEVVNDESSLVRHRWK
Text: (§1) This assay is a Fluorescence Resonance Energy Transfer Assay (FRET) based assay. The substrate for this assay contains the ‘Swedish’ Lys-Met/Asn-Leu mutation of the amyloid precursor protein (APP) beta-secretase cleavage site. This substrate also contains two fluorophores: (7-methoxycoumarin-4-yl) acetic acid (Mca) is a fluorescent donor with excitation wavelength at 320 nm and emission at 405 nm and 2,4-Dinitrophenyl (Dnp) is a proprietary quencher acceptor. […] Upon cleavage by the beta-secretase, the fluorophore Mca is separated from the quenching group Dnp, restoring the full fluorescence yield of the donor. The increase in fluorescence is linearly related to the rate of proteolysis.
Briefly in a 384-well format recombinant BACE2 protein in a final concentration of 0.4 μg/ml is incubated for 450 minutes at room temperature with 10 μM substrate in incubation buffer (50 mM Citrate buffer pH 5.0, 0.05% PEG, no DMSO) in the absence or presence of compound. Next the amount of proteolysis is directly measured by fluorescence measurement at T=0 and T=450 (excitation at 320 nm and emission at 405 nm). Results are expressed in RFU (Relative Fluorescence Units), as difference between T450 and T0.
(§2) A best-fit curve is fitted by a minimum sum of squares method to the plot of % Controlmin versus compound concentration. From this an IC50 value (inhibitory concentration causing 50% inhibition of activity) can be obtained.

SMILES | IC50
CC(C)S(=O)(=O)C1(C)CCC(CF)(c2cc(NC(=O)c3ccc(F)cn3)ccc2F)N=C1N (single isomer, unassigned) [Compound 33] | 3.55 nM
CC(C)S(=O)(=O)C1(C)CCC(CF)(c2cc(NC(=O)c3ccc(F)cn3)ccc2F)N=C1N (single isomer, unassigned) [Compound 34] | 4270 nM
C[C@@]1(S(C)(=O)=O)CC[C@@](CF)(c2cc(NC(=O)c3ccc(F)cn3)ccc2F)N=C1N [Compound 20] | 3.02 nM
Cc1cc(C#N)cnc1C(=O)Nc1ccc(F)c([C@]2(CF)CC[C@@](C)(S(C)(=O)=O)C(N)=N2)c1 [Compound 21] | 5.01 nM
CC1(S(C)(=O)=O)CCC(CF)(c2cc(NC(=O)c3ccc(C#N)cn3)ccc2F)N=C1N (stereo not shown) [Compound 22] | 5.25 nM
C[C@@]1(c2cc(NC(=O)c3ccc(F)cn3)ccc2F)CC[C@@](CF)(S(C)(=O)=O)C(N)=N1 [Compound 26] | 11 nM

test system: Abeta 1-42 produced and secreted into the medium of human neuroblastoma SKNBE2 cells; test: Cellular αLisa assay in SKNBE2 cells, Abeta 42; format: cell-based; conditions: Homo sapiens, SKNBE2, 18 h, SKNBE2 cells expressing hAPP695, incubated for 18 hours; read-out: Cellular αLisa assay in SKNBE2 cells Abeta 42 pIC50 (converted)
Experimental: In two αLisa assays the levels of Abeta 1-42 produced and secreted into the medium of human neuroblastoma SKNBE2 cells are quantified. The assay is based on the human neuroblastoma SKNBE2 expressing the wild type Amyloid Precursor Protein (hAPP695). The compounds are diluted and added to these cells, incubated for 18 hours and then measurements of Abeta 1-42 are taken. Abeta 1-42 are measured by sandwich αLisa. αLisa is a sandwich assay using biotinylated antibody AbN/25 attached to streptavidin coated beads and antibody cAb42/26 conjugated acceptor beads for the detection of Abeta 1-42 respectively. In the presence of Abeta 1-42, the beads come into close proximity. The excitation of the donor beads provokes the release of singlet oxygen molecules that trigger a cascade of energy transfer in the acceptor beads, resulting in light emission. Light emission is measured after 1 hour incubation (excitation at […] and emission at 615 nm).
as §2

SMILES | IC50
C[C@@]1(S(C)(=O)=O)CC[C@@](CF)(c2cc(NC(=O)c3ccc(F)cn3)ccc2F)N=C1N [Compound 20] | 2.51 nM
Cc1cc(C#N)cnc1C(=O)Nc1ccc(F)c([C@]2(CF)CC[C@@](C)(S(C)(=O)=O)C(N)=N2)c1 [Compound 21] | 0.813 nM
CC1(S(C)(=O)=O)CCC(CF)(c2cc(NC(=O)c3ccc(C#N)cn3)ccc2F)N=C1N (stereo not shown) [Compound 22] | 1.15 nM
C[C@@]1(c2cc(NC(=O)c3ccc(F)cn3)ccc2F)CC[C@@](CF)(S(C)(=O)=O)C(N)=N1 [Compound 26] | 5.25 nM

same assay, conditions: SKNBE2 cells expressing hAPP695, incubated for 18 hours

SMILES | Cellular αLisa assay in SKNBE2 cells Abeta 42 pIC50
CC(C)S(=O)(=O)C1(C)CCC(CF)(c2cc(NC(=O)c3ccc(F)cn3)ccc2F)N=C1N (single isomer, unassigned) [Compound 33] | 8.32
CC(C)S(=O)(=O)C1(C)CCC(CF)(c2cc(NC(=O)c3ccc(F)cn3)ccc2F)N=C1N (single isomer, unassigned) [Compound 34] | 5.56

test system: Abeta 1-37, Abeta 1-38, Abeta 1-40 and Abeta 1-42 in CSF; test: Pharmacology in the Beagle dog: beta-amyloid profile in cerebrospinal fluid (CSF) after a single dose; format: in vivo; conditions: Canis lupus familiaris, single dose 0.08 mg/kg, 8 h post dosing, read-out: % Decrease in Abeta 1-42 at 8 h post dosing compared to own baseline
Experimental: Test compounds were tested to evaluate the effect on the beta-amyloid profile in cerebrospinal fluid (CSF) of dogs after a single dose, in combination with pharmacokinetic (PK) follow up and limited safety evaluation.
For each of compound 20, 21, 22 or 41, four beagle dogs (2 males, 2 females) were dosed with vehicle (1 ml/kg of an aqueous solution of 20% cyclodextrin) and 12 beagle dogs (2 males and 2 females per dosage group) were dosed with test compounds as follows:
In the case of compounds 39, 33 and 31, two beagle dogs (1 male, 1 female) were dosed with vehicle (1 ml/kg of an aqueous solution of 20% cyclodextrin) and 4 beagle dogs (2 males and 2 females) were dosed with test compound […] (0.31 mg/kg in 0.31 mg/ml of an aqueous 20% cyclodextrin solution) on an empty stomach.
Eight hours after dosing the animals got access to their regular meal for 30 minutes. Blood was taken for PK follow up (0.5, 1, 2, 4, 8, 25 and 49 hours) and serum samples for biochemistry were taken before and at 8 and 25 h after dosing. The CSF samples were used for measurement of Abeta 1-37, Abeta 1-38, Abeta 1-40 and Abeta 1-42.

SMILES | inhibition in vivo at 0.08 mg/kg
Cc1cc(C#N)cnc1C(=O)Nc1ccc(F)c([C@]2(CF)CC[C@@](C)(S(C)(=O)=O)C(N)=N2)c1 [Compound 21] | 49%
CC1(S(C)(=O)=O)CCC(CF)(c2cc(NC(=O)c3ccc(C#N)cn3)ccc2F)N=C1N (stereo not shown) [Compound 22] | 50%

same assay, conditions: Canis lupus familiaris, single dose 0.16 mg/kg, 8 h post dosing, read-out: % Decrease in Abeta 1-42 at 8 h post dosing compared to own baseline

SMILES | inhibition in vivo at 0.16 mg/kg
C[C@@]1(S(C)(=O)=O)CC[C@@](CF)(c2cc(NC(=O)c3ccc(F)cn3)ccc2F)N=C1N [Compound 20] | 54%

same assay, conditions: Canis lupus familiaris, single dose 0.31 mg/kg, 8 h post dosing, read-out: % Decrease in Abeta 1-42 at 8 h post dosing compared to own baseline

SMILES | inhibition in vivo at 0.31 mg/kg
CC(C)S(=O)(=O)C1(C)CCC(CF)(c2cc(NC(=O)c3ccc(F)cn3)ccc2F)N=C1N (single isomer, unassigned) [Compound 33] | 34%
Cc1cc(C#N)cnc1C(=O)Nc1ccc(F)c([C@]2(CF)CC[C@@](C)(S(C)(=O)=O)C(N)=N2)c1 [Compound 21] | 78%
CC1(S(C)(=O)=O)CCC(CF)(c2cc(NC(=O)c3ccc(C#N)cn3)ccc2F)N=C1N (stereo not shown) [Compound 22] | 78%

same assay, conditions: Canis lupus familiaris, single dose 0.63 mg/kg, 8 h post dosing, read-out: % Decrease in Abeta 1-42 at 8 h post dosing compared to own baseline

SMILES | inhibition in vivo at 0.63 mg/kg
C[C@@]1(S(C)(=O)=O)CC[C@@](CF)(c2cc(NC(=O)c3ccc(F)cn3)ccc2F)N=C1N [Compound 20] | 75%
Cc1cc(C#N)cnc1C(=O)Nc1ccc(F)c([C@]2(CF)CC[C@@](C)(S(C)(=O)=O)C(N)=N2)c1 [Compound 21] | 70%

same assay, conditions: Canis lupus familiaris, single dose 1.25 mg/kg, 8 h post dosing, read-out: % Decrease in Abeta 1-42 at 8 h post dosing compared to own baseline

SMILES | inhibition in vivo at 1.25 mg/kg
C[C@@]1(S(C)(=O)=O)CC[C@@](CF)(c2cc(NC(=O)c3ccc(F)cn3)ccc2F)N=C1N [Compound 20] | 77%

same assay, conditions: single dose 0.08 mg/kg, 24 h post dosing (a)

SMILES | % Decrease in Abeta 1-42 at 24 h^(a) or 25 h^(b) post dosing compared to own baseline
CC1(S(C)(=O)=O)CCC(CF)(c2cc(NC(=O)c3ccc(C#N)cn3)ccc2F)N=C1N (stereo not shown) [Compound 22] | 54^(a) %

same assay, conditions: single dose 0.16 mg/kg, 24 h post dosing (a)

SMILES | % Decrease in Abeta 1-42 at 24 h^(a) or 25 h^(b) post dosing compared to own baseline
C[C@@]1(S(C)(=O)=O)CC[C@@](CF)(c2cc(NC(=O)c3ccc(F)cn3)ccc2F)N=C1N [Compound 20] | 44^(a) %

same assay, conditions: single dose 0.31 mg/kg, 25 h post dosing (b)

SMILES | % Decrease in Abeta 1-42 at 24 h^(a) or 25 h^(b) post dosing compared to own baseline
Cc1cc(C#N)cnc1C(=O)Nc1ccc(F)c([C@]2(CF)CC[C@@](C)(S(C)(=O)=O)C(N)=N2)c1 [Compound 21] | 69^(b) %

same assay, conditions: single dose 0.31 mg/kg, 49 h post dosing

SMILES | % Decrease in Abeta 1-42 at 49 h post dosing compared to own baseline
CC1(S(C)(=O)=O)CCC(CF)(c2cc(NC(=O)c3ccc(C#N)cn3)ccc2F)N=C1N (stereo not shown) [Compound 22] | 71%

same assay, conditions: single dose 0.63 mg/kg, 49 h post dosing

SMILES | % Decrease in Abeta 1-42 at 49 h post dosing compared to own baseline
C[C@@]1(S(C)(=O)=O)CC[C@@](CF)(c2cc(NC(=O)c3ccc(F)cn3)ccc2F)N=C1N [Compound 20] | 29%

same assay, conditions: single dose 1.25 mg/kg, 49 h post dosing

SMILES | % Decrease in Abeta 1-42 at 49 h post dosing compared to own baseline
C[C@@]1(S(C)(=O)=O)CC[C@@](CF)(c2cc(NC(=O)c3ccc(F)cn3)ccc2F)N=C1N [Compound 20] | 65%

molecular target: T2, recombinant BACE1 protein (Homo sapiens, UniProt P56817); test: BACE1 biochemical FRET based assay - Method 1; conditions: BACE1, 120 minutes at room temperature, pH 5.0; read-out: Biochemical FRET based assay - Method 1 pIC50 (converted)
T2 construct: recombinant BACE1 protein in a final concentration of 1 μg/ml
Text: as §1, with “this assay is an APP derived 13 amino acids peptide that contains the” for “this assay contains the”, “cleavage by BACE1, the fluorophore” for “cleavage by the beta-secretase, the fluorophore”
Briefly in a 384-well format recombinant BACE1 protein in a final concentration of 1 μg/ml is incubated for 120 minutes at room temperature with 10 μm substrate in incubation buffer (40 mM Citrate buffer pH 5.0, 0.04% PEG, 4% DMSO) in the absence or presence of compound. Next the amount of proteolysis is directly measured by fluorescence measurement at T=0 and T=120 (excitation at 320 nm and emission at 405 nm). Results are expressed in RFU (Relative Fluorescence Units), as difference between T120 and T0.
as §2

T2 sequence (P56817 46-501): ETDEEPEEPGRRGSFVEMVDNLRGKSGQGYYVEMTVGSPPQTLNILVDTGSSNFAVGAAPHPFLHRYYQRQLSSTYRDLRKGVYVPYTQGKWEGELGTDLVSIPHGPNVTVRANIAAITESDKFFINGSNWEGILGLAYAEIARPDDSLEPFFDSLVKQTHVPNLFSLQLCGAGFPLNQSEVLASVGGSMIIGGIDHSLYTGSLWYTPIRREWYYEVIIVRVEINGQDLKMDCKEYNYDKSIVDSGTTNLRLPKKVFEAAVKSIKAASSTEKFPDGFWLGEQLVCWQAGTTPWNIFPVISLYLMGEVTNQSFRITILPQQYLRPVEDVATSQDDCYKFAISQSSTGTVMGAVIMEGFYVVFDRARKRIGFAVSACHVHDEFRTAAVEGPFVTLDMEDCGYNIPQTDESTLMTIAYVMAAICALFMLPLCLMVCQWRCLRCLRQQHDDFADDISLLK

SMILES | IC50
CC(C)S(=O)(=O)C1(C)CCC(CF)(c2cc(NC(=O)c3ccc(F)cn3)ccc2F)N=C1N (single isomer, unassigned) [Compound 33] | 4.27 nM
CC(C)S(=O)(=O)C1(C)CCC(CF)(c2cc(NC(=O)c3ccc(F)cn3)ccc2F)N=C1N (single isomer, unassigned) [Compound 34] | 3630 nM
C[C@@]1(S(C)(=O)=O)CC[C@@](CF)(c2cc(NC(=O)c3ccc(F)cn3)ccc2F)N=C1N [Compound 20] | 3.02 nM
Cc1cc(C#N)cnc1C(=O)Nc1ccc(F)c([C@]2(CF)CC[C@@](C)(S(C)(=O)=O)C(N)=N2)c1 [Compound 21] | 1.38 nM
CC1(S(C)(=O)=O)CCC(CF)(c2cc(NC(=O)c3ccc(C#N)cn3)ccc2F)N=C1N (stereo not shown) [Compound 22] | 1.12 nM
C[C@@]1(c2cc(NC(=O)c3ccc(F)cn3)ccc2F)CC[C@@](CF)(S(C)(=O)=O)C(N)=N1 [Compound 26] | 14.8 nM

test system: Abetatotal in human neuroblastoma SKNBE2 cells; test: Cellular αLisa assay in SKNBE2 cells, Abetatotal; format: cell-based; conditions: Homo sapiens, SKNBE2, 18 h, SKNBE2 cells expressing hAPP695, incubated for 18 hours; read-out: Cellular αLisa assay in SKNBE2 cells Abetatotal pIC50 (converted)

SMILES | IC50
C[C@@]1(S(C)(=O)=O)CC[C@@](CF)(c2cc(NC(=O)c3ccc(F)cn3)ccc2F)N=C1N [Compound 20] | 2.57 nM
C[C@@]1(c2cc(NC(=O)c3ccc(F)cn3)ccc2F)CC[C@@](CF)(S(C)(=O)=O)C(N)=N1 [Compound 26] | 4.07 nM

same assay, conditions: SKNBE2 cells expressing hAPP695, incubated for 18 hours

SMILES | Cellular αLisa assay in SKNBE2 cells Abetatotal pIC50
CC(C)S(=O)(=O)C1(C)CCC(CF)(c2cc(NC(=O)c3ccc(F)cn3)ccc2F)N=C1N (single isomer, unassigned) [Compound 33] | 8.37
CC(C)S(=O)(=O)C1(C)CCC(CF)(c2cc(NC(=O)c3ccc(F)cn3)ccc2F)N=C1N (single isomer, unassigned) [Compound 34] | 5.72
